For 11 molecules, MIC, response vs control in vivo and IC50 results are on record in patent US4626540A, “Substituted 1-amino-4-nitro-acridinones and methods of treating bacterial infections and leukemia with them” (Warner-Lambert Company, priority 1984, dated 1986).

For one test, the system named is Streptococcus pneumoniae. Kind of test: In vitro antibacterial (ABMF) microdilution test, Streptococcus pneumoniae. Type of test: cell-based. The conditions noted are these: Mueller-Hinton broth, 37° C., 16-24 hours, read-out: ABMF minimal inhibitory conc, S. pneu. From the text: (§1) Still another test protocol is the in vitro antibacterial (ABMF) test which is a recognized standard microdilution susceptibility procedure in Mueller-Hinton broth against Gram-positive and Gram-negative bacterial test organisms. The procedure is a modification of a state-of-the-art procedure reported in Manual of Clinical Microbiology, Lennette, E. H., ed., by Barry, A. L. and C. Thornsberry at pages 463-474 and by Gavan, T. L. and A. L. Barry at pages 459-462, American Society for Microbiology, Washington, 1980.
(§2) In the test, a given bacterial culture is used to inoculate individual test wells of microdilution trays containing growth medium and test compound, the latter in a microdilution series: 1000, 333, 111, 37, 12, 4, 1.4, and 0.46 micrograms per milliliter. […] For convenience, values are reported for Escherichia coli, Corynebacterium Sp. ATCC 21698, Branhamella catarrhalis, Streptococcus pneumoniae, and Bacillus cereus.

Another test relates to Escherichia coli. Kind of test: In vitro antibacterial (ABMF) microdilution test, Escherichia coli. Type of test: cell-based. The conditions noted are these: Mueller-Hinton broth, 37° C., 16-24 hours, read-out: ABMF minimal inhibitory conc, E. coli.
From the text: as §1, §2

The test system of test [1] is Corynebacterium Sp. ATCC 21698. Put plainly: In vitro antibacterial (ABMF) microdilution test, Corynebacterium Sp. Type of test: cell-based. The conditions noted are these: ATCC21698, Mueller-Hinton broth, 37° C., 16-24 hours, read-out: ABMF minimal inhibitory conc, Coryn. Species.
From the text: as §1, §2

Test [2] concerns lymphocytic leukemia P388. Put plainly: In vivo lymphocytic leukemia P388 test. Also on record: species or system CD2 F1 mice. The conditions noted are these: Mus musculus, P388, ip, intraperitoneal, once daily for five days, survival time treated/control, read-out: P388 in vivo T/C × 100. As for the experimental part: Another test protocol is the in vivo lymphocytic leukemia P388 test. the animals used are either male or female CD2 F1 mice, six or seven animals per test group. The tumor transplant is by intraperitoneal injection of dilute ascitic fluid containing cells of lymphocytic leukemia P388. The test compounds are administered intraperitoneally once daily for five consecutive days at various doses following tumor inoculation. The animals are weighed and survivors are recorded on a regular basis for 30 days. A compound is designated "toxic" if, at a given dose, all animals die prior to four days after the first injection of drug. A ratio of survival time for treated (T)/control (C) animals is calculated. A criterion for efficacy is a ratio T/C times 100 greater than or equal to 125. See Cancer Chemotherapy Reports, Part 3, 3, 1 (1972) for a comprehensive discussion of the protocol.

The subject of another test is Bacillus cereus. Kind of test: In vitro antibacterial (ABMF) microdilution test, Bacillus cereus. The format is cell-based. The settings on record: Mueller-Hinton broth, 37° C., 16-24 hours, read-out: ABMF minimal inhibitory conc, B. cer.
From the text: as §1, §2

The subject of the next test is Branhamella catarrhalis. Put plainly: In vitro antibacterial (ABMF) microdilution test, Branhamella catarrhalis. The settings on record: Moraxella catarrhalis; Mueller-Hinton broth, 37° C., 16-24 hours; read-out: ABMF minimal inhibitory conc, B. cat. Type of test: cell-based.
From the text: as §1, §2

Test [3] deals with L1210 murine leukemia cell lines. Put plainly: In vitro antitumor screening (PDC test), L1210 murine leukemia cell growth. Type of test: cell-based. The settings on record: Mus musculus, 72 h; L1210 cells, 37° C., three days; value is ID50 multiplied by 10^7. On the procedure: Another test protocol is the in vitro antitumor screening (PDC test) of compounds of the present invention on L1210 murine leukemia cell lines. L1210 cells, a murine leukemia cell line, were grown in RPMI 1640 supplemented with 5% fetal bovine serum and gentamicin (50 μg/ml).
Drug dilutions were prepared in the apropriate solvent and 20 μl of each dilution were added to 24-well Linbro tissue culture plats, followed by the addition of M 2.0 ml of cell suspension containing 3×10^4 cells per ml. Solvent and medium controls were included in each test. After incubation at 37° C. for three days in 5% CO2, the contents of each well were removed and the cells counted in a ZBI Coulter counter. Percent growth was calculated relative to the controls and the levels of drug activity wre expressed as ID50 in moles per liter using probit paper.

SMILES strings stand for the structures. Counter-ions that a name gives are not always drawn. A value given as a limit tells only on which side of the number the result lay.

On to `CN(C)CCCNc1ccc([N+](=O)[O-])c2[nH]c3ccc(OC(=O)C(C)(C)C)cc3c(=O)c12` [Example 25, [8-[[3-(Dimethylamino)propyl]amino]-9,10-dihydro-5-nitro-9-oxo-2-acridinyl]-2,2-dimethylpropanoate, methanesulfonate (1:1), hemihydrate], for which the MIC with Streptococcus pneumoniae was determined as 333 µg/mL; in the test on Escherichia coli it was 111 µg/mL; in test [1], 333 µg/mL; with Bacillus cereus it was 111 µg/mL; with Branhamella catarrhalis, 333 µg/mL. Also, in test [2] (1.56 mg/kg), the response vs control in vivo at 1.56 mg/kg came to 156%. In addition, the response vs control in vivo at 3.12 mg/kg in test [2] (3.12 mg/kg) came to 173%. In test [2] (6.25 mg/kg), the response vs control in vivo at 6.25 mg/kg was 214%. For the same molecule, in test [2] (12.5 mg/kg), the response vs control in vivo at 12.5 mg/kg was determined as 248%. Moreover, it took 15 nM to reach half-maximal inhibition in test [3] (IC50).
`CCN(CC)CCNc1ccc([N+](=O)[O-])c2[nH]c3cc(O)ccc3c(=O)c12.CS(=O)(=O)O` [Example 28, 1-[[2-(Diethylamino)ethyl]amino]-6-hydroxy-4-nitro-9(10H)acridinone, methanesulfonate (1:1)]: the MIC in the test on Streptococcus pneumoniae was less than 0.46 µg/mL; in the test on Escherichia coli, 1.4 µg/mL; in test [1] it was less than 0.46 µg/mL; in the test with Bacillus cereus it was 1.4 µg/mL; in the test on Branhamella catarrhalis, less than 0.46 µg/mL. Besides, the half-maximal inhibitory concentration (IC50) in test [3] was found to be 360 nM.
For the molecule `COc1ccc2[nH]c3c([N+](=O)[O-])ccc(NCC[N+](C)(C)[O-])c3c(=O)c2c1` [Example 14, 1-[[2-(Dimethylamino)ethyl]amino]-7-methoxy-4-nitro-9(10H)-acridinone, N^ω -oxide, 3-chlorobenzoate salt], the MIC in the test on Streptococcus pneumoniae was less than 0.46 µg/mL; in the test with Escherichia coli, 12.3 µg/mL; in test [1], 1.4 µg/mL; with Bacillus cereus it was 333 µg/mL; in the test with Branhamella catarrhalis it was 12.3 µg/mL. The response vs control in vivo at 50 mg/kg in test [2] was 157%.
As to `CCN(CC)CCNc1ccc([N+](=O)[O-])c2[nH]c3ccc(OC)c(Cl)c3c(=O)c12` [Example 27, 1-Chloro-8-[[2-Diethylamino)ethyl]amino]-2-methoxy-5-nitro-9(10H)acridinone, methanesulfonate], the MIC is 1.4 µg/mL with Streptococcus pneumoniae; 4.1 µg/mL in the test with Escherichia coli; less than 0.46 µg/mL in test [1]; 4.1 µg/mL in the test with Bacillus cereus; 1.4 µg/mL in the test on Branhamella catarrhalis. The molecule also displayed an IC50 in test [3] of 420 nM.
As for `CCCCOc1ccc2[nH]c3c([N+](=O)[O-])ccc(NCCN(CC)CC)c3c(=O)c2c1.CS(=O)(=O)O` [Example 6, 7-Butoxy-1-[[2-(diethylamino)ethyl]amino]-4-nitro-9-(10H)-acridinone, methanesulfonate], the MIC (in the test with Streptococcus pneumoniae; in the test on Escherichia coli; in test [1]; in the test on Bacillus cereus; in the test on Branhamella catarrhalis) was greater than 1000 µg/mL each time. Further, in test [2], the response vs control in vivo at 25 mg/kg amounted to 139%. The response vs control in vivo at 50 mg/kg in test [2] came to 160%. The same molecule came in with an IC50 in test [3] of 580 nM.
With `CCCCOc1ccc2[nH]c3c([N+](=O)[O-])ccc(NCCN(C)C)c3c(=O)c2c1.CS(=O)(=O)O` [Example 11, 7-Butoxy-1-[[2-(dimethylamino)ethyl]amino]-4-nitro-9(10H)-acridinone, methanesulfonate], the MIC (with Streptococcus pneumoniae; in the test on Escherichia coli; in test [1]; in the test with Bacillus cereus; with Branhamella catarrhalis) was greater than 1000 µg/mL throughout. The response vs control in vivo at 25 mg/kg in test [2] was 130%. The response vs control in vivo at 50 mg/kg in test [2] worked out at 175%. In test [3], this molecule had an IC50 of 1600 nM.
With `CCN(CC)CCNc1ccc([N+](=O)[O-])c2c1c(=O)c1ccccc1n2C` [Example 30, 1-[[2-(Diethylamino)ethyl]amino]-10-methyl-4-nitro-9(10H)-acridinone, methanesulfonate (1:1), hydrate (1:1)], the MIC is 37 µg/mL with Streptococcus pneumoniae; 111 µg/mL in the test on Escherichia coli; 111 µg/mL in test [1]; 111 µg/mL in the test on Bacillus cereus; 111 µg/mL with Branhamella catarrhalis. For the same molecule, in test [2], the response vs control in vivo at 200 mg/kg is 147%.
For `CCN(CC)CCNc1ccc([N+](=O)[O-])c2[nH]c3ccccc3c(=O)c12.CS(=O)(=O)O` [Example 1, 1-[[2-(Diethylamino)ethyl]amino]-4-nitro-9-(10H)-acridinone, methanesulfonate (1:1)], the MIC in the test on Streptococcus pneumoniae is less than 0.46 µg/mL; with Escherichia coli, 12.3 µg/mL; in test [1] it was less than 0.46 µg/mL; in the test on Bacillus cereus, 12.3 µg/mL; with Branhamella catarrhalis it was less than 0.46 µg/mL. The response vs control in vivo at 25 mg/kg in test [2] was 145%. Moreover, the response vs control in vivo at 50 mg/kg in test [2] was found to be 172%. In test [3], this molecule registered a concentration for half-maximal inhibition (IC50) of 450 nM.
Take `CCN(CC)CCNc1ccc([N+](=O)[O-])c2c1c(=O)c1cc(OC)ccc1n2C.CS(=O)(=O)O` [Example 31, 1-[[2-(Diethylamino)ethyl]amino]-7-methoxy-10-methyl-4-nitro-9(10H)-acridinone, methanesulfonate (1:1)]: the MIC is greater than 1000 µg/mL in the test with Streptococcus pneumoniae; greater than 1000 µg/mL in the test on Escherichia coli; 1000 µg/mL in test [1]; greater than 1000 µg/mL in the test on Bacillus cereus; greater than 1000 µg/mL with Branhamella catarrhalis. Moreover, in test [2], the response vs control in vivo at 100 mg/kg turned out to be 128%. The response vs control in vivo at 200 mg/kg in test [2] was determined as 128%.
Consider `CN(C)CCNc1ccc([N+](=O)[O-])c2c1c(=O)c1ccccc1n2C.CS(=O)(=O)O` [Example 32, 1-[[2-(Dimethylamino)ethyl]amino]-10-methyl-4-nitro-9(10H)-acridinone, methanesulfonate (1:1)], for which the MIC with Streptococcus pneumoniae is 12.3 µg/mL; with Escherichia coli it was 37 µg/mL; in test [1], 333 µg/mL; with Bacillus cereus it was greater than 1000 µg/mL; in the test with Branhamella catarrhalis, greater than 1000 µg/mL. In addition, the response vs control in vivo at 50 mg/kg in test [2] stood at 126%. The response vs control in vivo at 100 mg/kg in test [2] was determined as 146%. Moreover, the IC50 in test [3] came to 3200 nM.
For `CCN(CC)CCNc1ccc([N+](=O)[O-])c2[nH]c3cccc(O)c3c(=O)c12.CS(=O)(=O)O` [Example 29, 1-[[2-(Diethylamino)ethyl]amino]-8-hydroxy-4-nitro-9-(10H)-acridinone, methanesulfonate], the MIC in the test with Streptococcus pneumoniae is less than 0.46 µg/mL; in the test on Escherichia coli, 1.4 µg/mL; in test [1], less than 0.46 µg/mL; with Bacillus cereus, less than 0.46 µg/mL; in the test on Branhamella catarrhalis, less than 0.46 µg/mL. In test [3], 88 nM corresponded to half-maximal inhibition (IC50).
